Measurements as given in patent US20070031493A1, “Pharmaceutical compositions” (priority 1996, published 2007).

Key:
Assay type in all cases: physicochemical
[1] = Drug release and tablet erosion, eroding polyethyleneoxide (PEO) matrix tablet, USP II apparatus; conditions: eroding matrix of PEO 8,000,000, 10 mg drug; pH 6.8, +37° C., paddle 75 rpm; FIG. 1
Protocol: In the following Examples 1 to 3, drug release from various types of tablets was determined in pH 6.8, +37° C., by use of an USP II apparatus at a paddle stirring rate of 75 rpm. All tablet formulations were manufactured by conventional techniques and, for each example, in an identical manner except for the drug constituent. […] Tablet erosion was determined by weighing after removal of the tablets from the dissolution apparatus and drying to constant weight.

[2] = Drug release from eroding paraffin matrix tablet and immediate release hard gelatin capsule, USP II apparatus; conditions: 20 mg drug, pH 6.8, +37° C., paddle 75 rpm, FIG. 3
Protocol: (§1) In the following Examples 1 to 3, drug release from various types of tablets was determined in pH 6.8, +37° C., by use of an USP II apparatus at a paddle stirring rate of 75 rpm. All tablet formulations were manufactured by conventional techniques and, for each example, in an identical manner except for the drug constituent.

[3] = Transport over a diffusion controlling polymeric membrane, two-compartment cell; conditions: pH 6.8, +37° C., steady state, FIG. 4
Protocol: The release rate was studied at different initial concentrations of the active drug. The solutions (pH 6.8) in the chambers were well stirred and thermostated at +37° C. From the cumulative amount released versus time, the release rates (amount released/time) were determined as the slopes of the linear parts of the curves obtained at steady state. No accumulation in the membrane was found of any of the drugs. The results are presented in FIG. 4 as the release rates versus the concentrations used in the experiments.

[4] = Drug release from non-eroding high molecular weight xanthane matrix tablet, USP II apparatus; conditions: non-eroding matrix of xanthane (195 mg), 5 mg drug; pH 6.8, +37° C., paddle 75 rpm; FIG. 2
Protocol: as §1

Water solubility = assay: Water solubility

| SMILES | drug release compared with tablet erosion [1] | drug release from sustained release tablet (comparison) [1] | drug release from sustained release tablet (comparison) [2] | release rate over membrane versus concentration in donor chamber ([3]; different initial concentrations) | release rate over membrane (comparison) [3] | drug release from sustained release tablet (comparison) [4] | water solubility (Water solubility) [mg/mL] | solubility (Water solubility; water) [mg/mL] |
| --- | --- | --- | --- | --- | --- | --- | --- | --- |
| CC(C)n1c(/C=C/[C@@H](O)C[C@@H](O)CC(=O)O)c(-c2ccc(F)cc2)c2ccccc21 (relative stereo) [fluvastatin, R*,S*-(E)-(±)-7-[3-(4-fluorophenyl)-1-(1-methyl-ethyl)-1H-indol-2-yl]-3,5-dihydroxy-6-heptenoic acid] | almost identical | slower than the release of methylparaben | slower than the release of diclofenac | independent of the concentration of fluvastatin in the donor compartment | much slower compared to diclofenac | slower than the release of both diclofenac and methylparaben | – | – |
| CC(C)n1c(/C=C/C(O)CC(O)CC(=O)O)c(-c2ccc(F)cc2)c2ccccc21 (stereo not drawn) [fluvastatin sodium] | – | – | – | – | – | – | > 50 | > 50 |
| COC(=O)c1ccc(O)cc1 [methylparaben, methyl p-hydroxybenzoate] | faster than the tablet erosion | – | – | – | – | – | – | – |
